Measurements published in patent publication US4782073A, “Amides of [(5,6-dichloro-3-oxo-9-alpha-substituted-2,3,9,9-alpha-tetrahydrofluoren -7-yl-oxyl]acetic acids, and pharmaceutical compositions thereof” (Merck & Co., Inc., priority 1986, dated 1988).

Legend:
[1] = pKa; assay type: physicochemical; conditions: read-out: pV-a
[2] = Distribution between octanol and aqueous buffer at pH 7.4; assay type: physicochemical
Description: a. Distribution between octanol and aqueous buffer at pH = 7.4 were
determined as described by R. A. Sherrer and S. M. Howard, J. Med. Chem.

[3] = Protein binding (bovine serum albumin); assay type: in vitro ADME; conditions: 4 × 10^-4 M bovine serum albumin
Excerpt: b. % Bound using 4 × 10^-4 M bovine serum albumin.

[4] = system: cat cerebrocortical tissue slices; experiment: in vitro cat cerebrocortical tissue slice assay (inhibition of HCO3- stimulated swelling); assay type: cell-based; conditions: Felis catus, 1 h, compounds dissolved as sodium salts, 60 min incubation at 37° C, read-out: I50, concentration giving 50% inhibition of swelling
Excerpt: The (1) in vitro cat cerebrocortical tissue slice assay, (2) the in vitro primary rat astrocyte culture assay and (3) the in vivo cat head injury assay. The first assay, the in vitro cat cerebrocortical tissue slice assay has been described by Marshall, L. F.; Shapiro, H. M.; Smith, R. W. In "Seminars in Neurological Surgery: Neural Trauma"; Popp, A. J.; Bourke, R. S.; Nelson, L. R.; Kimelberg, H, K,. Eds.; Raven Press: New York, 1979; p 347, by Bourke, R. S.; Kimelberg, H, K.; Daze, M. A. in Brain Res. 1978, 154, 196, and by Bourke, R. S.; Kimelberg, H. K,; Nelson, L. R. in Brain Res. 1976, 105, 309. This method constitutes a rapid and accurate method of determining the intrinsic chloride inhibitory properties of the compounds of the invention in the target tissue.
Using the in vitro cat cerebrocortical tissue slice assay, described in Example 1, compounds of the present invention can be tested for activity. This test provides the principal in vitro evaluation and consists of a determination of concentration vs. response curve. […]
Following the 60 minute incubation period, tissue slices were separated from incubation medium by filtration, reweighed, and homogenized in 1 N HClO4 (10% w/v) for electrolyte analysis. […] Control slice swelling is expressed as microliters per gram initial preswelling fresh weight. […]

[5] = system: astroglial edema; conditions: in vitro assay, J. Med. Chem. 25, 567 (1982); cited from earlier work
[6] = system: animals receiving experimental in vivo head injury; conditions: in vivo head injury assay, J. Med. Chem. 25, 567 (1982); cited from earlier work
[7] = system: clinical cases of head injury; conditions: J. Med. Chem. 25, 567 (1982); cited from earlier work

SMILES	pKa [1]	logD [2]	fraction unbound [3]	IC50 [4] [µM]	activity in vitro [5]	activity in vivo [6]	reduction of mortality in clinical cases of head injury [7]
CCC[C@]12CCC(=O)C=C1c1c(cc(OCC(=O)N[C@@H](Cc3ccc(O)cc3)C(=O)O)c(Cl)c1Cl)C2	4.12	1.99	0.022	–	–	–	–
CCC[C@]12CCC(=O)C=C1c1c(cc(OCC(=O)N[C@@H](Cc3c[nH]cn3)C(=O)O)c(Cl)c1Cl)C2	6.9	1.95	0.079	–	–	–	–
C=C(CC)C(=O)c1ccc(OCC(=O)O)c(Cl)c1Cl [ethacrynic acid]	–	–	–	–	exhibited activity	exhibited activity	effective in reducing mortality
CCC[C@]12CCC(=O)C=C1c1c(cc(OCC(=O)NS(=O)(=O)CC)c(Cl)c1Cl)C2 [SO2 C2 H5]	4.1	1.99	–	0.01	–	–	–
CCC[C@]12CCC(=O)C=C1c1c(cc(OCC(=O)N[C@@H](Cc3ccccc3)C(=O)O)c(Cl)c1Cl)C2	4.58	2	0.057	–	–	–	–
CCC[C@]12CCC(=O)C=C1c1c(cc(OCC(=O)Nc3nnn[nH]3)c(Cl)c1Cl)C2	3.78	1.96	0.019	–	–	–	–

Continued, in another order:

pKa [1]	logD [2]	fraction unbound [3]	IC50 [4] [µM]	SMILES	activity in vitro [5]	activity in vivo [6]	reduction of mortality in clinical cases of head injury [7]
4.25	1.97	0.028	0.02	CCC[C@]12CCC(=O)C=C1c1c(cc(OCC(=O)NS(C)(=O)=O)c(Cl)c1Cl)C2 [Example 4, R(+)-N-Methylsulfonyl-[(5,6-dichloro-3-oxo-9a-propyl-2,3,9,9a-tetrahydro-1H-fluoren-7-yl)oxy]acetamide]	–	–	–
4.1	1.91	0.024	–	CCC[C@]12CCC(=O)C=C1c1c(cc(OCC(=O)N[C@@H](CO)C(=O)O)c(Cl)c1Cl)C2	–	–	–
4.6	2	0.03	–	CCC[C@]12CCC(=O)C=C1c1c(cc(OCC(=O)N[C@H](C(=O)O)C(C)C)c(Cl)c1Cl)C2	–	–	–
3.65	1.99	0.016	–	CCC[C@]12CCC(=O)C=C1c1c(cc(OCC(=O)NC#N)c(Cl)c1Cl)C2 [Example 5, R(+)-N-Cyano-[(5,6-dichloro-3-oxo-9a-propyl-2,3,9,9a-tetrahydro-1H-fluoren-77-yl)oxy]acetamide]	–	–	–
